According to patent US20210299286A1, “TETRAZINES FOR HIGH CLICK CONJUGATION YIELD IN VIVO AND HIGH CLICK RELEASE YIELD” (Tagworks Pharmaceuticals B.V., priority 2018, published 2021):
Read-outs that look alike come from different tables or passages of the source.

Legend:
AVP0458-TCO-MMAE = assay: MMAE release from diabody ADC with D8-MMAE internal standard (LC-SIM-MS); assay type: biochemical; settings: 10 equiv of tetrazine, PBS/plasma (1/1), 37° C., after 24 h, n=3
Method: In an alternative method MMAE release from diabody ADC (AVP0458-TCO-MMAE) was determined by using a deuterated internal standard D8-MMAE. ADC (1.1×10^−10 moles bound MMAE) and D8-MMAE (1.1×10^−10 moles) and 10 equiv of tetrazine were incubated in 100 uL PBS/plasma (1/1) at 37° C.

[1] = Second-order reaction rate constant with TCO derivative by UV spectroscopy; assay type: physicochemical; settings: 25% MeCN/PBS at 20° C.
Method: The second-order reaction rate constants were calculated from the rate at which the absorption at 520 nm (specific for the TZ moiety) decreased (Table 4).

[2] = In vitro tetrazine stability (decrease of UV absorbance at 520 nm); assay type: physicochemical; settings: read-out: In vitro tetrazine stability (h), t1/2 (converted)
Method: The stability of tetrazines was evaluated by dissolving them in 10% MeCN/PBS at 37° C. and following the decrease of the tetrazine UV absorbance at 520 nm in time (Table 4).

CC49-TCO-Dox [3] = assay: In vitro Dox release from CC49-TCO-Dox in 50% mouse serum; assay type: biochemical
Method: (§1) Doxorubicin (Dox) release from the TCO-linked ADC CC49-TCO-Dox with various TZ activators in PBS and 50% mouse serum at 37° C. was evaluated in vitro as described in Rossin et al. Bioconjug. […] The results of these experiments are depicted in Tables 3 (PBS) and 4 (mouse serum). The release reactions were performed in triplicate unless otherwise stated in the result table.

CC49-TCO-Dox [4] = assay: In vitro Dox release from CC49-TCO-Dox in PBS; assay type: biochemical
Method: as §1

[5] = test system: LS174T human colon carcinoma cells; assay: Cell proliferation (MTT) assay of ADCs with range of tetrazines; assay type: cell-based; settings: 3-day incubation; for cell growth inhibition, combination of ADC and activator: CC49-TCO-Dox 0.1 μM or AVP0458-TCO-MMAE 1 nM plus activator 1 μM; for cell growth inhibition, activators alone: activator 1 μM alone
Method: Cell proliferation was assessed after a 3-day incubation by means of an MTT assay and was expressed as the % of that obtained without treatment.

[6] = Remark on stability of the free base; assay type: physicochemical; settings: intramolecular nucleophilic attack by the amine

## Cc1nnc(-c2nccc(CNC(=O)CCCC(=O)O)n2)nn1 [Compound 4.27]
AVP0458-TCO-MMAE
  induced MMAE release (%) from AVP0458-TCO-MMAE: 66 ± 0.5%

## Cc1nnc(-c2nccc(C(=O)O)n2)nn1 [Compound 4.23]
AVP0458-TCO-MMAE
  induced MMAE release (%) from AVP0458-TCO-MMAE: 69 ± 0.5%
[1]
  reactivity (k2): 246 M⁻¹ s⁻¹
[2]; 10% MeCN/PBS
  half-life: 6 h

## 3-(pyridin-2-yl)-6-methyl-1,2,4,5-tetrazine functional dextran [Compound 3.2]
CC49-TCO-Dox [3]
  In vitro Dox release (%) from CC49-Dox at 37° C. in 50% mouse serum: 1 h: 36.1 ± 0.1%
  In vitro Dox release (%) from CC49-Dox at 37° C. in 50% mouse serum: 2 h: 39.8 ± 0.2%
  In vitro Dox release (%) from CC49-Dox at 37° C. in 50% mouse serum: 3 h: 42.0 ± 0.4%
CC49-TCO-Dox [4]
  In vitro Dox release (%) from CC49-Dox at 37° C. in PBS: 1 h: 44.3%
  In vitro Dox release (%) from CC49-Dox at 37° C. in PBS: 2 h: 44.7%
  In vitro Dox release (%) from CC49-Dox at 37° C. in PBS: 3 h: 47.5%
  In vitro Dox release (%) from CC49-Dox at 37° C. in PBS: 24 h: 45.0%

## O=C(O)CN1CCN(CC(=O)O)CCN(CC(=O)NCCOCCNC(=O)CCCC(=O)NCCCc2nnc(CCCNC(=O)CCCC(=O)NCCOCCNC(=O)CN3CCN(CC(=O)O)CCN(CC(=O)O)CCN(CC(=O)O)CC3)nn2)CCN(CC(=O)O)CC1 [Compound 5.3, Tz-bis-DOTA]
CC49-TCO-Dox [3]
  In vitro Dox release (%) from CC49-Dox at 37° C. in 50% mouse serum: 1 h: 43.6 ± 3.5%
  In vitro Dox release (%) from CC49-Dox at 37° C. in 50% mouse serum: 2 h: 54.9 ± 6.0%
  In vitro Dox release (%) from CC49-Dox at 37° C. in 50% mouse serum: 3 h: 64.4 ± 3.3%
CC49-TCO-Dox [3]; 6 h
  In vitro Dox release (%) from CC49-Dox at 37° C. in 50% mouse serum: 6 h: 67.5 ± 8.3%
CC49-TCO-Dox [4]
  In vitro Dox release (%) from CC49-Dox at 37° C. in PBS: 1 h: 50.5%
  In vitro Dox release (%) from CC49-Dox at 37° C. in PBS: 2 h: 59.3%
  In vitro Dox release (%) from CC49-Dox at 37° C. in PBS: 3 h: 62.5%
  In vitro Dox release (%) from CC49-Dox at 37° C. in PBS: 24 h: 80.3%
  In vitro Dox release (%) from CC49-Dox at 37° C. in PBS: 48 h: 91.2%

## Cc1nnc(-c2cnccn2)nn1 [Compound 4.18]
AVP0458-TCO-MMAE
  induced MMAE release (%) from AVP0458-TCO-MMAE: 55 ± 0.8%
[1]
  reactivity (k2): 150 M⁻¹ s⁻¹
[2]; 10% MeCN/PBS
  half-life: 16 h

## Cc1nnc(-c2nccc(CNC(=O)OC(C)(C)C)n2)nn1 [Compound 4.17]
AVP0458-TCO-MMAE
  induced MMAE release (%) from AVP0458-TCO-MMAE: 70 ± 0.1%
[1]
  reactivity (k2): 412 M⁻¹ s⁻¹
[2]; 10% MeCN/PBS
  half-life: 12 h

## NCCc1nnc(-c2nccc(CNC(=O)CCCC(=O)O)n2)nn1 [Compound 5.5]
AVP0458-TCO-MMAE
  induced MMAE release (%) from AVP0458-TCO-MMAE: 81 ± 0.4%

## O=C(O)CN1CCN(CC(=O)O)CCN(CC(=O)NCCOCCOCCOCCOCCOCCOCCOCCOCCOCCOCCOCCNC(=O)CCCC(=O)Nc2ccc(-c3nnc(-c4ccccn4)nn3)nc2)CCN(CC(=O)O)CC1 [Compound 5.1, 2,2′,2″-(10-(2,40,44-Trioxo-44-((6-(6-(pyridine-2-yl)-1,2,4,5-tetrazin-3-yl)pyridine-3-yl)amino)-6,9,12,15,18,21,24,27,30,33,36-undecaoxa-3,39-diazatetratetracontyl)-1,4,7,10-tetraazacyclododecane-1,4,7-triyl)triacetic acid]
CC49-TCO-Dox [3]
  In vitro Dox release (%) from CC49-Dox at 37° C. in 50% mouse serum: 1 h: 13.7 ± 0.7%
  In vitro Dox release (%) from CC49-Dox at 37° C. in 50% mouse serum: 2 h: 15.2 ± 1.4%
  In vitro Dox release (%) from CC49-Dox at 37° C. in 50% mouse serum: 3 h: 14.8 ± 0.8%
CC49-TCO-Dox [4]
  In vitro Dox release (%) from CC49-Dox at 37° C. in PBS: 1 h: 14.2%
  In vitro Dox release (%) from CC49-Dox at 37° C. in PBS: 2 h: 20.4%
  In vitro Dox release (%) from CC49-Dox at 37° C. in PBS: 3 h: 24.3%
  In vitro Dox release (%) from CC49-Dox at 37° C. in PBS: 24 h: 48.1%
  In vitro Dox release (%) from CC49-Dox at 37° C. in PBS: 48 h: 54.9%

## COCCOCCOCCOCCOCCOCCOCCOCCOCCOCCOCC(=O)NCCCc1nnc(-c2ncccn2)nn1 [Compound 4.24]
[2]; 10% MeCN/PBS
  half-life: 13 h

## CN(CCc1nnc(-c2ncccn2)nn1)C(=O)c1ccc(F)cc1 [Compound 4.35, 4-fluoro-N-methyl-N-(2-(6-(pyrimidin-2-yl)-1,2,4,5-tetrazin-3-yl)ethyl)benzamide]
AVP0458-TCO-MMAE
  induced MMAE release (%) from AVP0458-TCO-MMAE: 67 ± 0.1%
[5]
  cell growth inhibition, combination of ADC and activator: growth inhibition approached that achieved with the corresponding amount of free drug
  cell growth inhibition, activators alone: minimal cell growth inhibition

## NCCCc1nnc(-c2ncccn2)nn1 [Compound 4.6]
[6]
  stability in free base form: highly unstable

## Cc1nnc(-c2ccc(NC(=O)CCCC(=O)NCCOCCOCCOCCOCCOCCOCCOCCOCCOCCOCCOCCNC(=O)CN3CCN(CC(=O)O)CCN(CC(=O)O)CCN(CC(=O)O)CC3)cn2)nn1 [Compound 3.4, 2,2′,2″-(10-(44-((6-(6-methyl-1,2,4,5-tetrazin-3-yl)pyridin-3-yl)amino)-2,40,44-trioxo-6,9,12,15,18,21,24,27,30,33,36-undecaoxa-3,39-diazatetratetracontyl)-1,4,7,10-tetraazacyclododecane-1,4,7-triyl)triacetic acid]
AVP0458-TCO-MMAE
  induced MMAE release (%) from AVP0458-TCO-MMAE: 47 ± 0.3%
[5]
  cell growth inhibition, combination of ADC and activator: growth inhibition approached that achieved with the corresponding amount of free drug
  cell growth inhibition, activators alone: minimal cell growth inhibition

## Cc1nnc(-c2nccnc2C)nn1 [Compound 4.20]
AVP0458-TCO-MMAE
  induced MMAE release (%) from AVP0458-TCO-MMAE: 59 ± 0.3%
[1]
  reactivity (k2): 28 M⁻¹ s⁻¹
[2]; 10% MeCN/PBS
  half-life: 15 h

## 3,6-dimethyl-1,2,4,5-tetrazine functional dextran [Compound 2.2]
CC49-TCO-Dox [3]
  In vitro Dox release (%) from CC49-Dox at 37° C. in 50% mouse serum: 1 h: 34.0 ± 1.2%
  In vitro Dox release (%) from CC49-Dox at 37° C. in 50% mouse serum: 2 h: 43.4 ± 1.5%
  In vitro Dox release (%) from CC49-Dox at 37° C. in 50% mouse serum: 3 h: 48.6 ± 1.2%
CC49-TCO-Dox [4]
  In vitro Dox release (%) from CC49-Dox at 37° C. in PBS: 1 h: 44.9%
  In vitro Dox release (%) from CC49-Dox at 37° C. in PBS: 2 h: 51.3%
  In vitro Dox release (%) from CC49-Dox at 37° C. in PBS: 3 h: 54.6%
  In vitro Dox release (%) from CC49-Dox at 37° C. in PBS: 24 h: 62.3%

## Cc1nnc(-c2ccccn2)nn1 [Compound 3.1, 3-(2-pyridyl)-6-methyl-1,2,4,5-tetrazine]
CC49-TCO-Dox [3]
  In vitro Dox release (%) from CC49-Dox at 37° C. in 50% mouse serum: 1 h: 53.8 ± 1.7%
  In vitro Dox release (%) from CC49-Dox at 37° C. in 50% mouse serum: 2 h: 57.1 ± 1.8%
  In vitro Dox release (%) from CC49-Dox at 37° C. in 50% mouse serum: 3 h: 59.6 ± 2.0%
CC49-TCO-Dox [4]
  In vitro Dox release (%) from CC49-Dox at 37° C. in PBS: 1 h: 55.1%
  In vitro Dox release (%) from CC49-Dox at 37° C. in PBS: 2 h: 55.9%
  In vitro Dox release (%) from CC49-Dox at 37° C. in PBS: 3 h: 58.9%
  In vitro Dox release (%) from CC49-Dox at 37° C. in PBS: 24 h: 59.6%

## Cc1nnc(-c2nccc(CNC(=O)CN(CCN(CC(=O)O)CC(=O)O)CC(=O)O)n2)nn1 [Compound 4.26]
AVP0458-TCO-MMAE
  induced MMAE release (%) from AVP0458-TCO-MMAE: 59 ± 0.6%
[5]
  cell growth inhibition, combination of ADC and activator: growth inhibition approached that achieved with the corresponding amount of free drug
  cell growth inhibition, activators alone: minimal cell growth inhibition
[1]
  reactivity (k2): 135 M⁻¹ s⁻¹
[2]; 10% MeCN/PBS
  half-life: 13 h

## Cc1nnc(-c2ccncn2)nn1 [Compound 4.19]
AVP0458-TCO-MMAE
  induced MMAE release (%) from AVP0458-TCO-MMAE: 60 ± 0.1%
[1]
  reactivity (k2): 290 M⁻¹ s⁻¹
[2]; buffer
  half-life: 1 h

## CN(CCc1nnc(-c2ncccn2)nn1)C(=O)N1CCN(C(=O)c2ccc(F)cc2)CC1 [Compound 4.33, 4-(4-fluorobenzoyl)-N-methyl-N-(2-(6-(pyrimidin-2-yl)-1,2,4,5-tetrazin-3-yl)ethyl)piperazine-1-carboxamide]
AVP0458-TCO-MMAE
  induced MMAE release (%) from AVP0458-TCO-MMAE: 53 ± 0.6%
[5]
  cell growth inhibition, combination of ADC and activator: growth inhibition approached that achieved with the corresponding amount of free drug
  cell growth inhibition, activators alone: minimal cell growth inhibition

## NCCc1nnc(-c2nccc(CNC(=O)CCCC(=O)NC(CO)(CO)CO)n2)nn1 [Compound 5.8]
AVP0458-TCO-MMAE
  induced MMAE release (%) from AVP0458-TCO-MMAE: 80 ± 0.5%
